In brackets after ≈: the same amount, converted by molar mass.
How the values were obtained:
[1] = test system: 44 ligands (including receptors, transporters, ion channels, enzymes and kinases); assay: In vitro safety pharmacology binding assays (CEREP profile); details: 10 μM, 44 ligands tested
Description: In vitro pharmacology binding assays were carried out for compound (I), comparative compound (II) and comparative compound (III) to evaluate the percentage of inhibition against 44 ligands (including receptors, transporters, ion channels, enzymes and kinases) at a concentration of 10 μM of compound (I), comparative compound (II) or comparative compound (III). Compound binding was calculated as a percentage of inhibition of the binding of a radioactively labelled ligand specific for each target. Results showing an inhibition higher than 50% are considered to represent discernible effects of compound (I), comparative compound (II) or comparative compound (III). […] The in vitro pharmacology binding assays for compound (I) and comparative compounds (II) and (III) was carried out separately over different days, and compared in FIGS. 1a, 1b, 1c, and 1d.

[2] = test system: Proteus spp. (10 isolates); assay: MIC by broth microdilution (EUCAST), 10 isolates; format: cell-based
Description: (§1) Minimum Inhibitory Concentration (MIC90) versus 100 isolates of Escherichia coli and Klebsiella pneumonia were determined. The Minimum Inhibitory Concentration at which 90% of the isolates (strains) are inhibited (MIC90) were measured by broth microdilution in line with EUCAST susceptibility testing standards (www.eucast.org). Bacterial inocula were prepared at ca 1×10^6 CFU/mL by diluting 100-fold a 0.5 McFarland suspension. Antibacterial panels containing 50 μl of antibacterial solutions at 2× the final concentrations were diluted 2-fold with 50 μl of inoculum to give a final inoculum of ca 5×10^5 CFU/ml and desired test concentrations of antibacterial agents (0.03-64 μg/mL). The plates were incubated according to the guidelines of the Clinical and Laboratory Standards Institute (Clinical and Laboratory Standards Institute. Methods for Dilution Antimicrobial Susceptibility Tests for Bacteria That Grow Aerobically; Approved Standard-Eleventh Edition, CLSI document […], 11 Jan. 2018). The MIC90 (μg/ml) is the MIC value at which greater than or equal to 90% of the isolates (strains) within a test population are inhibited. Minimum Inhibitory Concentrations (MICs) versus Proteus spp. and Providencia spp. were determined for compound (I) and comparative compound (III) using the methodology outlined above for the 100 isolates of Escherichia coli and Klebsiella pneumonia.

[3] = test system: Providencia spp. (10 isolates); assay: MIC by broth microdilution (EUCAST), 10 isolates; format: cell-based
Description: as §1

[4] = test system: Klebsiella pneumonia (100 isolates); assay: MIC90 by broth microdilution (EUCAST), 100 isolates; format: cell-based
Description: as §1, with “inhibited.” for “inhibited. Minimum Inhibitory Concentrations (MICs) versus Proteus spp. and Providencia spp. were determined for compound (I) and comparative compound (III) using the methodology outlined above for the 100 isolates of Escherichia coli and Klebsiella pneumonia.”

[5] = test system: Escherichia coli (100 isolates); assay: as above; format: cell-based
Description: as §1, with “inhibited.” for “inhibited. Minimum Inhibitory Concentrations (MICs) versus Proteus spp. and Providencia spp. were determined for compound (I) and comparative compound (III) using the methodology outlined above for the 100 isolates of Escherichia coli and Klebsiella pneumonia.”

[6] = test system: Klebsiella pneumoniae ATCC 43816; assay: Murine respiratory infection proof-of-concept study, IV bolus; format: in vivo
Description: Compound (I) and comparative compound (III) were evaluated in proof-of-concept studies in murine models for the treatment of a respiratory infection with Gram-negative bacteria of the order Enterobacterales, a bacteraemia or bloodstream infection with Gram-negative bacteria of the order Enterobacterales, and a urinary tract infection with Gram-negative bacteria of the order Enterobacterales. Each dot, triangle or square indicator represents a single mouse. LOD refers to the limit of detection of the bacteria. […] Each of the proof-of-concept studies was carried out separately. By vehicle is meant pharmaceutically acceptable carrier or excipient. For the proof-of-concept study for the treatment of a respiratory infection caused or exacerbated by Gram-negative bacteria of the order Enterobacterales, CD-1 mice were infected with Klebsiella pneumoniae ATCC 43816. Two hours after infection (‘pre-treatment’ in FIG. 2), a vehicle (20% hydroxypropyl β cyclodextrin) containing no compound (I) or comparative compound (III), or a vehicle (20% hydroxypropyl β cyclodextrin) containing compound (I) or comparative compound (III), was administered by IV bolus at 20 mg/kg, TID (8 hrs apart), over one day.

[7] = test system: Proteus mirabilis (DSM 4479); assay: MIC by broth microdilution (CLSI); format: cell-based; details: DSM4479
Description: Minimum Inhibitory Concentrations (MICs) versus Escherichia coli (NCTC 13441) and Klebsiella pneumoniae (NCTC 13438) (planktonic bacteria) were determined by the broth microdilution procedure in line with the guidelines of the Clinical and Laboratory Standards Institute (Clinical and Laboratory Standards Institute. Methods for Dilution Antimicrobial Susceptibility Tests for Bacteria That Grow Aerobically, Approved Standard-Eleventh Edition, CLSI document M07, 11 Jan. 2018). The broth dilution method involved a two-fold serial dilution of compounds in 96-well microtitre plates, giving a final concentration range of 0.39-200 μM and a maximum final concentration of 2% DMSO. The bacterial strains tested were Escherichia coli (NCTC 13441) and Klebsiella pneumoniae (NCTC 13438). Strains were grown in cation-adjusted Müller-Hinton broth or on Luria Bertani agar at 37° C. in an ambient atmosphere. The MIC (μM) was determined as the lowest concentration of compound that inhibits growth following a 20-24 hour incubation period.
Minimum Inhibitory Concentrations (MICs) versus Proteus mirabilis (DSM 4479) were determined for compound (I) and comparative compounds (II) and (III) using the methodology outlined above.

[8] = Lipophilicity, Log P measured with SiriusT3 (octanol titration); format: physicochemical; details: octanol / aqueous sample solution
Description: Log P values of compound (I) and comparative compound (III) were measured using the SiriusT3 instrument from Sirius Analytical by performing an acid-based titration and measuring the shift in pKa when the sample solution is in contact with an immiscible solvent (octanol). Log P for the comparative compound (II) was calculated using Marvin (physico-chemical calculation software). The lipophilicity data for compound (I) and comparative compounds (II) and (III) was collected in separate experiments carried out on different days, and compared in Table 5.

Permeability = format: in vitro ADME

With `Cc1cnccc1-c1[nH]c(N)nc1-c1ccc2c(c1)N(C(=O)C(C)(C)N)CCO2` [Compound (I), 2-amino-1-(6-(2-amino-5-(3-methylpyridin-4-yl)-1H-imidazol-4-yl)-2,3-dihydro-4H-benzo[b][1,4]oxazin-4-yl)-2-methylpropan-1-one] as the compound, how does the “ligands with inhibition higher than 50%” value [1] read?
Its value is “only a single ligand”.

And the “MIC Range” value [2]?
Its value is 8 to 32 µg/mL.

And the “MIC Range” value [3]?
Its value is 0.5 to 16 µg/mL.

And the “MIC Range” value [4]?
Its value is 0.25 to 8.00 µg/mL.

And the MIC90 ([4]; Klebsiella pneumoniae)?
The MIC90 was 2 µg/mL (≈ 5.1 µM).

What about the MIC90 [5] of the same compound?
Its MIC90 is 1 µg/mL (≈ 2.55 µM).

What about the “MIC Range” value [5] of the same compound?
The value was 0.12 to 4.00 µg/mL.

What about the “reduction of bacterial burden in the lung compared to vehicle” value ([6]; CD-1 mice, IV bolus 20 mg/kg TID over one day, 26 h from initial infection) of the same compound?
The value was 6.24 log.

And the “more efficacious than comparative compound (III), lung” value ([6]; difference in log reduction, 26 h)?
The value was 2 log.

And the MIC [7]?
Its MIC is 25 µM (≈ 9.81 µg/mL).

And the logP [8]?
Its logP is 1.6.

And the permeability (Permeability)?
Its permeability is “good permeability”.

Reference: patent US20240228474A1, “ANTIBACTERIAL COMPOUND” (DISCUVA LIMITED, priority 2021, published 2024)
